Test results reported in PubChem BioAssay (NCI).
Several values for one entry are separate records, joined by “and”; a condition that tells them apart may be missing. Identical values can stand only once.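 Cultured in 96-well plates, cells were exposed to test compound for 48 hours across five concentrations. Abbreviation: GI50, concentration required for 50% inhibition of growth. At the TGI there is no net growth.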

Columns and labels:
Assay in all cases: NCI-60 cell line screen, 48 h
HCC-2998 colon = tested on: HCC-2998 colon
HCT-116 colon = tested on: HCT-116 colon
ACHN renal = tested on: ACHN renal
OVCAR-4 ovarian = tested on: OVCAR-4 ovarian
SK-MEL-28 melanoma = tested on: SK-MEL-28 melanoma
EKVX NSCLC = tested on: EKVX NSCLC
SK-MEL-5 melanoma = tested on: SK-MEL-5 melanoma
LOX IMVI melanoma = tested on: LOX IMVI melanoma
NCI-H226 lung = tested on: NCI-H226 lung
SF-539 CNS = tested on: SF-539 CNS

SMILES	GI50 (HCC-2998 colon) [µM]	TGI (HCC-2998 colon) [µM]	GI50 (HCT-116 colon)	TGI (HCT-116 colon) [µM]	GI50 (ACHN renal) [µM]	TGI (ACHN renal) [µM]	GI50 (OVCAR-4 ovarian) [µM]	TGI (OVCAR-4 ovarian) [µM]	GI50 (SK-MEL-28 melanoma) [µM]	TGI (SK-MEL-28 melanoma) [µM]	GI50 (EKVX NSCLC)	TGI (EKVX NSCLC) [µM]	GI50 (SK-MEL-5 melanoma)	TGI (SK-MEL-5 melanoma) [µM]	GI50 (LOX IMVI melanoma) [µM]	TGI (LOX IMVI melanoma) [µM]	GI50 (NCI-H226 lung) [µM]	TGI (NCI-H226 lung) [µM]	GI50 (SF-539 CNS) [µM]	TGI (SF-539 CNS) [µM]
O=S1(=O)C=C(c2ccccc2)C(c2ccccc2)=C1	1.71	3.16	1.09 µM	2.28	1.55	2.88	1.9	3.82	1.77	3.18	2.08 µM	6.21	1.57 µM	2.9	1.69	3.05	1.68	3.34	2.14	5.94
CC(C)CC1NC(=O)C(C(C)C)NC(=O)CC(C)COC(=O)C(CC(C)C)N(C)C(=O)C(C(C)C)NC(=O)C(C(C)C)OC1=O (stereo not given)	–	> 50	–	> 50	–	> 50	–	–	–	> 50	–	> 50	–	> 50	–	> 50	–	> 50	–	27.5
COc1ccc(-c2cc(=O)c3cccnc3[nH]2)cc1	–	> 100	17.6 µM	80.3	–	> 100	–	> 100	–	> 100	–	> 100	35 µM	> 100	–	> 100	–	> 100	–	> 100
O=C1C=C(OCC=C(Cl)Cl)C(=O)c2ccccc21	> 100	> 100	2.52 µM	7.71	7.02	99.7	1.61	3	4.91	23.9	3.33 µM	28.2	1.53 µM	3.85	1.09	4.35	18.7	67.5	43.9	> 100
CCC12C=CCN3CCC4(C(=C(C(=O)OC)C1)Nc1ccccc14)[C@H]32 (stereo not given in full)	–	> 100	–	> 100	–	> 100	–	> 100	–	> 100	–	> 100	–	> 100	–	53.4	–	86.7	–	47.5
CC(=O)Nc1ccccc1S(=O)c1ccccc1 (stereo not given)	–	> 100	–	> 100	–	> 100	–	> 100	–	> 100	–	> 100	–	> 100	–	> 100	–	> 100	–	> 100
CCOc1ccccc1NC(=O)C(=O)c1c(O)c2ccc(O)cc2oc1=O	–	> 100	–	> 100	–	> 100	–	> 100	–	> 100	–	> 100	–	> 100	–	> 100	–	> 100	–	> 100
NNC(=O)N/N=C1/C(=O)N(c2ccc(Cl)c(Cl)c2)C(=O)C(=O)C1c1nc2ccccc2o1 (stereo not given)	–	> 100	–	> 100	–	> 100	–	> 100	–	> 100	–	> 100	–	> 100	–	> 100	–	> 100	–	> 100
CN(C)c1ccc(/C=N/NC(=O)c2cnc3ccccc3c2)cc1	–	> 100	–	> 100	–	> 100	–	> 100	–	> 100	–	> 100	–	> 100	–	> 100	–	> 100	–	> 100
O=C(N/N=C/c1cccc(O)c1)c1ccc(C(F)(F)F)nc1Nc1cccc(C(F)(F)F)c1	1.02	3.42	1.93 µM	5.69	2.09	6.35	0.955	22.8	1.89	10.1	1.01 µM	3.37	1.21 µM	2.44	1.17	3.17	1.28	3.51	1.78	4.03
N#CC(CC(=O)O)=C(c1ccccc1)c1ccccc1	–	> 100	–	> 100	–	> 100	–	> 100	–	> 100	–	> 100	–	> 100	–	> 100	–	> 100	–	> 100
NC(N)=NC(N)=NCc1ccco1	> 1250	> 1250	508 µM and 492 µM	> 1250	> 1250	> 1250	316	> 1250	> 1250	> 1250	117 µM and 31.7 µM	> 1250	363 µM and 119 µM	> 1250	581	> 1250	> 1250	> 1250	> 1250	> 1250
CC1CCC2[C@@H](C)COC3O[C@]4(C)CCC1C32OO4 (stereo not given in full)	–	> 100	–	> 100	–	> 100	–	> 100	–	> 100	–	> 100	–	> 100	–	> 100	–	> 100	–	> 100
COC(=O)CCc1c(/C=C2\N=C(c3ccc[nH]3)C=C2OC)[nH]c(C)c1C(=O)OCc1ccccc1	0.404	6.04	0.122 µM	1.07	0.297	1.1	0.331	> 100	0.503	2.3	0.733 µM	5.29	0.47 µM	1.75	0.169	0.418	0.532	4.75	0.363	1.83
CSc1nc(-c2cccc(NC(=O)CCl)c2)c(C#N)c(=O)n1C	1.96	3.8	0.621 µM	4.07	1.03	2.22	1.43	3.32	2.85	9.58	1.88 µM	3.65	1.33 µM	2.74	0.0184	0.0342	3.65	44.3	1.47	2.88
CCc1cccc(CC)c1NC(=O)C1=CNC(C)=C(C(=O)Nc2c(CC)cccc2CC)C1c1ccc(O)c(OC)c1 (stereo not given)	–	88.8	–	–	–	> 100	–	91.4	–	> 100	–	> 100	–	> 100	–	> 100	–	89.7	–	51.3
